Data on 22 compounds can be found in ChEMBL document CHEMBL5500373, “Lead optimization based design, synthesis, and pharmacological evaluation of quinazoline derivatives as multi-targeting agents for Alzheimer's disease treatment” (Eur J Med Chem, 2024).

Active and inactive are the calls of the source. The calls are words filed in the database; no cut-off is given here.

Data set [1] has as its target T1, Beta-secretase 1 (Homo sapiens, UniProt P56817). The data set is described as follows: Inhibition of human BACE-1 measured after 2 hrs by FRET assay.
Data set [2] deals with T2, Acetylcholinesterase (Homo sapiens, UniProt P22303). The experiment in a line: Inhibition of human erythrocyte AChE using acetylthiocholine iodide as substrate preincubated for 30 mins followed by substrate addition and measured after 30 mins by DTNB based Ellman's method.
T2 sequence (P22303 whole entry): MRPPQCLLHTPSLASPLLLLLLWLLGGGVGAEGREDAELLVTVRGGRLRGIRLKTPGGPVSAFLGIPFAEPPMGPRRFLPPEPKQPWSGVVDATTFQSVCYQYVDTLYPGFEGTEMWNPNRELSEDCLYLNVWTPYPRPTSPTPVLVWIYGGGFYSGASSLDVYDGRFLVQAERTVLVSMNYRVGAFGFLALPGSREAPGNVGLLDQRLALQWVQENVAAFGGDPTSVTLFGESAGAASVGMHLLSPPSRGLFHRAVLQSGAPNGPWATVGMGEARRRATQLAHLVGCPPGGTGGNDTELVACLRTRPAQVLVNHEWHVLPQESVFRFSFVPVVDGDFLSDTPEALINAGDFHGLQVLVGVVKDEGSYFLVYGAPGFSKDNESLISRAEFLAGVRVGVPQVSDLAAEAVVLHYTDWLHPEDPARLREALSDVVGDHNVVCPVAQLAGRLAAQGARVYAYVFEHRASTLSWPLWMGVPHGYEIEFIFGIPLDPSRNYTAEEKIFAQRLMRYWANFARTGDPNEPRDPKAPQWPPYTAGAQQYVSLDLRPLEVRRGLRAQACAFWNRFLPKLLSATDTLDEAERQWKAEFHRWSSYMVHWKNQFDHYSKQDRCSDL
For data set [3], the target named is T3, Cholinesterase (Homo sapiens, UniProt P06276). The experiment in a line: Inhibition of human serum BChE using butyrylthiocholine iodide as substrate preincubated for 30 mins followed by substrate addition and measured after 30 mins by DTNB based Ellman's method.
T3 sequence (P06276 whole entry, the tested form may be a part): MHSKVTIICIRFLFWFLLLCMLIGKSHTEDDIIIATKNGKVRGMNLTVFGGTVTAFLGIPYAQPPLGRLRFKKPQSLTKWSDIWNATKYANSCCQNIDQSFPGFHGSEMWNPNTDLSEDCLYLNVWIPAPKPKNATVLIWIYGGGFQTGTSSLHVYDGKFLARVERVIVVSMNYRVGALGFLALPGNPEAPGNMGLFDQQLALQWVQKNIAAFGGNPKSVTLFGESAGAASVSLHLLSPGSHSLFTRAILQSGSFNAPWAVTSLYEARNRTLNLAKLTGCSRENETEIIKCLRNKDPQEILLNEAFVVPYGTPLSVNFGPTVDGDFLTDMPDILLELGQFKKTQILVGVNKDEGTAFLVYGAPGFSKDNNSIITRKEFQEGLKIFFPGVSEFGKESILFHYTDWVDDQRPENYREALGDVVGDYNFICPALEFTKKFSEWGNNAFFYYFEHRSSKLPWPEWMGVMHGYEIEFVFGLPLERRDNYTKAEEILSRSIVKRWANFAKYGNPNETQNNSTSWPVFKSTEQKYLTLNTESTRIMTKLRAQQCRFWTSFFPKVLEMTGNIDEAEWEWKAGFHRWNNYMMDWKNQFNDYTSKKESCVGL
The target in data set [4] is Amyloid-beta precursor protein (Homo sapiens) (UniProt P05067). The experiment in a line: Inhibition of amyloid beta (1 to 42 residues) (unknown origin) aggregation assessed as reduction in massive oligomers measured after 3 days by AFM analysis. The conditions noted are these: time 3.0 day.
Amyloid-beta precursor protein (Homo sapiens), sequence (P05067 whole entry, the tested form may be a part): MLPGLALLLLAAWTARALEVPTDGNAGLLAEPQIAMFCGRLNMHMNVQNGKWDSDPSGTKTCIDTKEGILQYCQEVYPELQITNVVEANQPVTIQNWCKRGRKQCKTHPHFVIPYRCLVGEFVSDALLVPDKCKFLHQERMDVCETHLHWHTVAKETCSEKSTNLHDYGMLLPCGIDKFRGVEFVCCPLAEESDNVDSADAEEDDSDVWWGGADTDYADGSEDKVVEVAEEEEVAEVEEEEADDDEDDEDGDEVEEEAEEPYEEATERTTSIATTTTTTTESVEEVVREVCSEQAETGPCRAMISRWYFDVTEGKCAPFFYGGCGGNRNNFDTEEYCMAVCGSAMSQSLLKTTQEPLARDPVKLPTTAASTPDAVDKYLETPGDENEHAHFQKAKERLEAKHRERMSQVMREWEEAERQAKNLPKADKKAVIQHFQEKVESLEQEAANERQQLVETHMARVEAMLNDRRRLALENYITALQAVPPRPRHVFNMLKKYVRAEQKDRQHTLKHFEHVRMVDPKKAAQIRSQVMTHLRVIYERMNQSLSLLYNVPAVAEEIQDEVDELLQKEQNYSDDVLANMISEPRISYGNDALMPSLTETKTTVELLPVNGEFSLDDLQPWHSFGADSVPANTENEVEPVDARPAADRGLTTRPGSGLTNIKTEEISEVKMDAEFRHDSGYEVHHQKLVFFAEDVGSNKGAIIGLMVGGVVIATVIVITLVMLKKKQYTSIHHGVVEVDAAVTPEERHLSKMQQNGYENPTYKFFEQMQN
For data set [5] the target is unchanged. The data set is described as follows: Inhibition of amyloid beta (1 to 42 residues) (unknown origin) aggregation assessed as reduction in fibrils measured after 3 days by AFM analysis. The conditions noted are these: time 3.0 day.
In data set [6] the target is T1, Beta-secretase 1. The data set is described as follows: Inhibition of C-terminal 10-His tagged recombinant human BACE-1 using Mca-Ser-Glu-Val-Asn-Leu-Asp-Ala-Glu-Phe-Arg-Lys(Dnp)-Arg-Arg-NH2 as substrate pretreated for 10 mins followed by substrate addition and measured every 5 mins for 120 mins.
In data set [7] the target is T1, Beta-secretase 1. The experiment in a line: Inhibition of BACE-1 in human SH-SY5Y cells transfected with human APP695 measured after 24 hrs by ELISA. The format is cell-based.
Data set [8] is described as follows: Cytotoxicity against human SH-SY5Y cells by MTT assay. The format is toxicity, cell-based.
Data set [9] can be described thus: Antioxidant activity assessed as DPPH radical scavenging activity incubated for 30 mins in dark by UV/visible spectrophotometric analysis. In kind it is functional.
In data set [10] the target is T3, Cholinesterase. The experiment in a line: Inhibition of BChE (unknown origin) at 10 uM relative to control.
Data set [11] has as its target T2, Acetylcholinesterase. The experiment in a line: Inhibition of AChE (unknown origin) at 10 uM relative to control.
The target in data set [12] is Amyloid-beta precursor protein (Homo sapiens) (UniProt P05067). The experiment in a line: Inhibition of self induced amyloid beta (1 to 42 residues) (unknown origin) aggregation at 10 uM by thioflavin T based fluorescence analysis relative to control.
Data set [13] concerns PC-12. The data set is described as follows: Neuroprotective activity against amyloid beta (1 to 42 residues) induced cell damage in rat PC12 cells at 100 uM by MTT assay relative to control. The format is functional.
Data set [14] in a line: in vitro. The conditions noted are these: PAMPA.
Data set [15] concerns the target Cholinesterase (Equus caballus) (UniProt P81908). The data set is described as follows: Inhibition of horse serum BChE at 100 uM preincubated for 10 mins followed by substrate addition and measured after 15 mins by Ellman's method relative to control. The conditions noted are these: time 25.0 min.
Data set [16] deals with T2, Acetylcholinesterase. The experiment in a line: Inhibition of AChE (unknown origin).
The target of data set [17] is T1, Beta-secretase 1. The data set is described as follows: Inhibition of human BACE-1 by FRET assay.
Data set [18] in a line: Drug concentration in male Wistar rat brain homogenate at 20 mg/kg, po measured after 4 days. The conditions noted are these: time 4 day, read-out: Ct. The format is ADME, organism-based.
For data set [19], the target named is T2, Acetylcholinesterase. The data set is described as follows: Inhibition of human AChE.
Data set [20] deals with T1, Beta-secretase 1. The data set is described as follows: Inhibition of human BACE-1.
The target in data set [21] is T3, Cholinesterase. The experiment in a line: Inhibition of human BChE.
Data set [22] is described as follows: Drug concentration in male Wistar rat brain homogenate at 10 mg/kg, po measured after 4 days. The format is ADME, organism-based. The conditions noted are these: time 4 day, read-out: Ct.

T1 sequence (P56817 whole entry): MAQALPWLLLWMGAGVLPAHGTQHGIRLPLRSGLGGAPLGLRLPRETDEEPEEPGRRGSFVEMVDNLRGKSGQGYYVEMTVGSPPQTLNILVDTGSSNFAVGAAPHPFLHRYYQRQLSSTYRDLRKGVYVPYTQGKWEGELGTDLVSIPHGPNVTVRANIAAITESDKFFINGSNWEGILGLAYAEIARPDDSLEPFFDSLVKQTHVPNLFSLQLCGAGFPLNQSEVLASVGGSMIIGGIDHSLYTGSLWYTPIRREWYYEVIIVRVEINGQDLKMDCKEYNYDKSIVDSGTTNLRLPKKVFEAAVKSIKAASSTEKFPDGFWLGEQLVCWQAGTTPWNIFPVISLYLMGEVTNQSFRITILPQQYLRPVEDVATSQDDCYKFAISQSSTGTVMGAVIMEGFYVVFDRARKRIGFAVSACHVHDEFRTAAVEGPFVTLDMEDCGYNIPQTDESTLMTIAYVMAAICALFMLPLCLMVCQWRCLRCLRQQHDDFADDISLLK
Cholinesterase (Equus caballus), sequence (P81908 whole entry): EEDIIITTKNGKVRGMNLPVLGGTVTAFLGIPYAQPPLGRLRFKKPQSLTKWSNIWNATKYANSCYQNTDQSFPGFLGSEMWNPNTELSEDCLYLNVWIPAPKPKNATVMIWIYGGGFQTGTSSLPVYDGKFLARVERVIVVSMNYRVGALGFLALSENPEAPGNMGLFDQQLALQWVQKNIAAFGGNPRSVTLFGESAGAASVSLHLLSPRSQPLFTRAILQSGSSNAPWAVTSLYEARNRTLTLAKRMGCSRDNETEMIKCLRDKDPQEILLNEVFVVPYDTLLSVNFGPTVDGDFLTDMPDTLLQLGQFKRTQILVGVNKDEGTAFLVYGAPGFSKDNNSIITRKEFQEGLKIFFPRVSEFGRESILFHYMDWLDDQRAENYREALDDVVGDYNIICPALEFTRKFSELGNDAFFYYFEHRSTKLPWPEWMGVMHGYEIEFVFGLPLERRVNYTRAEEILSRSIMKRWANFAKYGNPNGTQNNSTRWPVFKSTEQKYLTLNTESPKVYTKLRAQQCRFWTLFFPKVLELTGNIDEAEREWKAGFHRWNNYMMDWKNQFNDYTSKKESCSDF

In the case of `COc1cc2ncnc(N3CCN(c4ccccc4)CC3)c2cc1OC`, the IC50 in data set [1] was 1310 nM; in data set [2], 1010 nM; in [3], greater than 10000 nM.

`COc1cc2ncnc(N3CCN(Cc4ccc(F)cc4)CC3)c2cc1OC`: the IC50 in data set [1] was 2920 nM; in [2], 932 nM; in data set [3] it was greater than 10000 nM.

With `COc1cc(/C=C/C(=O)CC(=O)/C=C/c2ccc(O)c(OC)c2)ccc1O`, the inhibition result in [4] and in data set [5] was “Active” in each case.

On to `COc1cc2ncnc(N3CCN(c4ccccc4[N+](=O)[O-])CC3)c2cc1OC`, for which the values for the IC50 in data set [1], in data set [2] and in data set [3] were 1820 nM, 914 nM and greater than 10000 nM, respectively.

For the compound `COc1cc2ncnc(N3CCN(Cc4ccc(C)cc4)CC3)c2cc1OC`, the IC50 is 1430 nM in [1], 1020 nM in data set [2] and greater than 10000 nM in [3].

In the case of `COc1cc2ncnc(N3CCN(c4ccc(C)cc4)CC3)c2cc1OC`, the figures for the IC50 in data set [1], in [2] and in [3] were 1880 nM, 1170 nM and greater than 10000 nM, respectively.

`COc1cc2ncnc(N3CCN(c4ccccn4)CC3)c2cc1OC`: the IC50 in [1] was 1560 nM; in data set [2] it was 1150 nM; in [3], greater than 10000 nM.

On to `CC1c2cc(Oc3ccccc3)ccc2N=C(N)N1CCCC(=O)N(Cc1ccnn1C)C1CCCCC1` (centres undefined), for which the IC50 in data set [6] is 380 nM; in [7] it was 140 nM; in data set [8], 11800 nM.

As for `Cn1c(N/N=C/c2cccc(Cl)c2Cl)nc2ccccc2c1=O`, the IC50 in data set [9] is greater than 100000 nM.

Take `COc1cc2ncnc(N3CCN(c4ccc(F)cc4)CC3)c2cc1OC`: the 50% inhibitory concentration (IC50) is 1470 nM in data set [1], 1040 nM in data set [2] and greater than 10000 nM in [3].

In the case of `C#CCN(C)c1nc(NC2CCCCC2)c2ccc(Cl)cc2n1`, the inhibition in data set [10] and in data set [11] was 3% throughout.

Regarding `COc1cc2c(Nc3ccc(C(=O)/C=C/c4nc(C)c(C)nc4C)cc3)ncnc2c(OC)c1OC`, in [12], the inhibition amounted to 26.7%. Moreover, in data set [13], the Activity stood at 77%.

`COc1cc2ncnc(N3CCN(c4ccc([N+](=O)[O-])cc4)CC3)c2cc1OC`: the IC50 is 729 nM in data set [1], 481 nM in data set [2] and greater than 10000 nM in [3]. This compound also gave a Papp at 18 h, 25 ug/ml in data set [14] of 4.81 ×10⁻⁶ cm/s.

Take `Cc1ccccc1-n1c(SCC(=O)N/N=C/c2ccc(Br)cc2)nc2ccccc2c1=O`: in [15], the inhibition turned out to be 6.8%.

Consider `O=C(CCN1CCCCC1)Nc1ccc2nc(-c3cc4ccccc4[nH]3)[nH]c(=O)c2c1`, for which, in data set [16], the IC50 amounted to 21 nM.

In turn, `FC(F)(F)c1ccc(-c2nnc(NC3CCN(Cc4ccccc4)CC3)o2)cc1` had an IC50 in data set [17] of 146 nM.

On to `COc1cc2ncnc(N3CCN(Cc4ccc(Cl)cc4)CC3)c2cc1OC`, for which the IC50 is 1650 nM in data set [1], 921 nM in data set [2] and greater than 10000 nM in [3].

`COc1cc2ncnc(N3CCN(C(c4ccccc4)c4ccccc4)CC3)c2cc1OC`: the IC50 in [1] was 662 nM; in [2], 436 nM; in data set [3], greater than 10000 nM. The compound also came in with a Papp at 18 h, 25 ug/ml in data set [14] of 6.28 ×10⁻⁶ cm/s.

Consider `COc1cc2ncnc(N3CCN(C(C)=O)CC3)c2cc1OC`, for which the IC50 was 3660 nM in data set [1], 1190 nM in data set [2] and greater than 10000 nM in [3].

As for `COc1cc2ncnc(N3CCN(C)CC3)c2cc1OC`, the IC50 was 3280 nM in data set [1], 1270 nM in data set [2] and greater than 10000 nM in data set [3].

With `COc1cc2ncnc(N3CCN(c4ccc(Br)cc4)CC3)c2cc1OC`, the figures for the IC50 in [1], in data set [2] and in data set [3] were 1710 nM, 973 nM and greater than 10000 nM, respectively.

`c1ccc(CN2CCN(c3nc(-c4ccccc4)nc4ccccc34)CC2)cc1`: the concentration at 96 h in data set [18] was determined as 54 ng/mL; in data set [22] it was 15 ng/mL. For the same compound, the results for the IC50 in data set [19], in data set [20] and in data set [21] were 191 nM, 254000 nM and greater than 10000 nM, respectively.
